Test results published in the supplement of paper PMC13380429.

Key:
Settings in all cases: 72 h
U2OS [1] = test: cell viability relative to DMSO; higher = less toxic
Caco-2 [2] = test: as above
Calu-3 [3] = test: as above
Vero E6 [4] = test: as above
HepG2 [5] = test: as above
U2OS [6] = test: drug sensitivity score (DSS) for viability; higher = more toxic; extreme values may be limits of the assay
Caco-2 [7] = test: as above
Calu-3 [8] = test: as above
Vero E6 [9] = test: as above
HepG2 [10] = test: as above
U2OS [11] = test: relative viability EC50 (midpoint between 100% and the lowest measured viability); higher = less toxic
Caco-2 [12] = test: as above
Calu-3 [13] = test: as above
Vero E6 [14] = test: as above
HepG2 [15] = test: as above

Cc1cc(C)nc(NS(=O)(=O)c2ccc(NC(=S)NC(=O)COc3ccc(Br)cc3Cl)cc2)n1 [ZCL-278]
cell viability (U2OS [1]; 1 nM): 95.6% | cell viability (U2OS [1]; 10 nM): 100% | cell viability (U2OS [1]; 100 nM): 93.5% | cell viability (U2OS [1]; 1000 nM): 97.9% | cell viability (U2OS [1]; 10000 nM): 93.8% | cell viability (Caco-2 [2]; 1 nM): 97.7% | cell viability (Caco-2 [2]; 10 nM): 102% | cell viability (Caco-2 [2]; 100 nM): 104% | cell viability (Caco-2 [2]; 1000 nM): 92.2% | cell viability (Caco-2 [2]; 10000 nM): 98.7% | cell viability (Calu-3 [3]; 1 nM): 98.4% | cell viability (Calu-3 [3]; 10 nM): 94.8% | cell viability (Calu-3 [3]; 100 nM): 103% | cell viability (Calu-3 [3]; 1000 nM): 104% | cell viability (Calu-3 [3]; 10000 nM): 107% | cell viability (Vero E6 [4]; 1 nM): 93.4% | cell viability (Vero E6 [4]; 10 nM): 97.5% | cell viability (Vero E6 [4]; 100 nM): 101% | cell viability (Vero E6 [4]; 1000 nM): 103% | cell viability (Vero E6 [4]; 10000 nM): 95.9% | cell viability (HepG2 [5]; 1 nM): 108% | cell viability (HepG2 [5]; 10 nM): 98.1% | cell viability (HepG2 [5]; 100 nM): 100% | cell viability (HepG2 [5]; 1000 nM): 96.4% | cell viability (HepG2 [5]; 10000 nM): 98.4% | drug sensitivity score (U2OS [6]): 0 | drug sensitivity score (Caco-2 [7]): 0 | drug sensitivity score (Calu-3 [8]): 0 | drug sensitivity score (Vero E6 [9]): 0 | drug sensitivity score (HepG2 [10]): 0 | relative viability EC50 (U2OS [11]): > 10 µM | relative viability EC50 (Caco-2 [12]): > 10 µM | relative viability EC50 (Calu-3 [13]): > 10 µM | relative viability EC50 (Vero E6 [14]): > 10 µM | relative viability EC50 (HepG2 [15]): > 10 µM

CC(=O)N[C@@H](CS)C(=O)O [acetylcysteine]
cell viability (U2OS [1]; 1 nM): 99.1% | cell viability (U2OS [1]; 10 nM): 97.2% | cell viability (U2OS [1]; 100 nM): 100% | cell viability (U2OS [1]; 1000 nM): 95.5% | cell viability (U2OS [1]; 10000 nM): 102% | cell viability (Caco-2 [2]; 1 nM): 105% | cell viability (Caco-2 [2]; 10 nM): 87.1% | cell viability (Caco-2 [2]; 100 nM): 98.1% | cell viability (Caco-2 [2]; 1000 nM): 101% | cell viability (Caco-2 [2]; 10000 nM): 100% | cell viability (Calu-3 [3]; 1 nM): 101% | cell viability (Calu-3 [3]; 10 nM): 101% | cell viability (Calu-3 [3]; 100 nM): 93% | cell viability (Calu-3 [3]; 1000 nM): 96.2% | cell viability (Calu-3 [3]; 10000 nM): 104% | cell viability (Vero E6 [4]; 1 nM): 104% | cell viability (Vero E6 [4]; 10 nM): 106% | cell viability (Vero E6 [4]; 100 nM): 102% | cell viability (Vero E6 [4]; 1000 nM): 103% | cell viability (Vero E6 [4]; 10000 nM): 97.8% | cell viability (HepG2 [5]; 1 nM): 99.2% | cell viability (HepG2 [5]; 10 nM): 103% | cell viability (HepG2 [5]; 100 nM): 94.9% | cell viability (HepG2 [5]; 1000 nM): 103% | cell viability (HepG2 [5]; 10000 nM): 104% | drug sensitivity score (U2OS [6]): 0 | drug sensitivity score (Caco-2 [7]): 0 | drug sensitivity score (Calu-3 [8]): 0 | drug sensitivity score (Vero E6 [9]): 0 | drug sensitivity score (HepG2 [10]): 0 | relative viability EC50 (U2OS [11]): > 10 µM | relative viability EC50 (Caco-2 [12]): > 10 µM | relative viability EC50 (Calu-3 [13]): > 10 µM | relative viability EC50 (Vero E6 [14]): > 10 µM | relative viability EC50 (HepG2 [15]): > 10 µM

COc1cc(C)c(/C=C/C(C)=C/C=C/C(C)=C/C(=O)O)c(C)c1C [acitretin]
cell viability (U2OS [1]; 1 nM): 100% | cell viability (U2OS [1]; 10 nM): 101% | cell viability (U2OS [1]; 100 nM): 94.4% | cell viability (U2OS [1]; 1000 nM): 93.7% | cell viability (U2OS [1]; 10000 nM): 92.1% | cell viability (Caco-2 [2]; 1 nM): 89.3% | cell viability (Caco-2 [2]; 10 nM): 93.2% | cell viability (Caco-2 [2]; 100 nM): 99.3% | cell viability (Caco-2 [2]; 1000 nM): 89.4% | cell viability (Caco-2 [2]; 10000 nM): 91.4% | cell viability (Calu-3 [3]; 1 nM): 97.5% | cell viability (Calu-3 [3]; 10 nM): 94.8% | cell viability (Calu-3 [3]; 100 nM): 83.9% | cell viability (Calu-3 [3]; 1000 nM): 83.5% | cell viability (Calu-3 [3]; 10000 nM): 75.3% | cell viability (Vero E6 [4]; 1 nM): 103% | cell viability (Vero E6 [4]; 10 nM): 99.6% | cell viability (Vero E6 [4]; 100 nM): 99.6% | cell viability (Vero E6 [4]; 1000 nM): 99.3% | cell viability (Vero E6 [4]; 10000 nM): 102% | cell viability (HepG2 [5]; 1 nM): 101% | cell viability (HepG2 [5]; 10 nM): 96.7% | cell viability (HepG2 [5]; 100 nM): 98.7% | cell viability (HepG2 [5]; 1000 nM): 106% | cell viability (HepG2 [5]; 10000 nM): 105% | drug sensitivity score (U2OS [6]): 0 | drug sensitivity score (Caco-2 [7]): 0 | drug sensitivity score (Calu-3 [8]): 3.8 | drug sensitivity score (Vero E6 [9]): 0 | drug sensitivity score (HepG2 [10]): 0 | relative viability EC50 (U2OS [11]): > 10 µM | relative viability EC50 (Caco-2 [12]): > 10 µM | relative viability EC50 (Calu-3 [13]): > 10 µM | relative viability EC50 (Vero E6 [14]): > 10 µM | relative viability EC50 (HepG2 [15]): > 10 µM

Nc1cc(-c2ccncc2)c[nH]c1=O [amrinone]
cell viability (U2OS [1]; 1 nM): 104% | cell viability (U2OS [1]; 10 nM): 98.3% | cell viability (U2OS [1]; 100 nM): 105% | cell viability (U2OS [1]; 1000 nM): 98.9% | cell viability (U2OS [1]; 10000 nM): 108% | cell viability (Caco-2 [2]; 1 nM): 96.2% | cell viability (Caco-2 [2]; 10 nM): 97.1% | cell viability (Caco-2 [2]; 100 nM): 92.4% | cell viability (Caco-2 [2]; 1000 nM): 91.8% | cell viability (Caco-2 [2]; 10000 nM): 95.9% | cell viability (Calu-3 [3]; 1 nM): 94.9% | cell viability (Calu-3 [3]; 10 nM): 95.7% | cell viability (Calu-3 [3]; 100 nM): 93.7% | cell viability (Calu-3 [3]; 1000 nM): 93.9% | cell viability (Calu-3 [3]; 10000 nM): 109% | cell viability (Vero E6 [4]; 1 nM): 95.5% | cell viability (Vero E6 [4]; 10 nM): 96.2% | cell viability (Vero E6 [4]; 100 nM): 86.6% | cell viability (Vero E6 [4]; 1000 nM): 100% | cell viability (Vero E6 [4]; 10000 nM): 106% | cell viability (HepG2 [5]; 1 nM): 96.2% | cell viability (HepG2 [5]; 10 nM): 100% | cell viability (HepG2 [5]; 100 nM): 104% | cell viability (HepG2 [5]; 1000 nM): 97.8% | cell viability (HepG2 [5]; 10000 nM): 97.3% | drug sensitivity score (U2OS [6]): 0 | drug sensitivity score (Caco-2 [7]): 0 | drug sensitivity score (Calu-3 [8]): 0 | drug sensitivity score (Vero E6 [9]): 0 | drug sensitivity score (HepG2 [10]): 0 | relative viability EC50 (U2OS [11]): > 10 µM | relative viability EC50 (Caco-2 [12]): > 10 µM | relative viability EC50 (Calu-3 [13]): > 10 µM | relative viability EC50 (Vero E6 [14]): > 10 µM | relative viability EC50 (HepG2 [15]): > 10 µM

Cc1cc2ncc(C(=O)NCC(C)(C)NCC(=O)N3CCC[C@H]3C#N)cn2n1 [anagliptin]
cell viability (U2OS [1]; 1 nM): 99.9% | cell viability (U2OS [1]; 10 nM): 101% | cell viability (U2OS [1]; 100 nM): 96.2% | cell viability (U2OS [1]; 1000 nM): 104% | cell viability (U2OS [1]; 10000 nM): 98.5% | cell viability (Caco-2 [2]; 1 nM): 103% | cell viability (Caco-2 [2]; 10 nM): 93.3% | cell viability (Caco-2 [2]; 100 nM): 94.6% | cell viability (Caco-2 [2]; 1000 nM): 97.8% | cell viability (Caco-2 [2]; 10000 nM): 100% | cell viability (Calu-3 [3]; 1 nM): 97.3% | cell viability (Calu-3 [3]; 10 nM): 102% | cell viability (Calu-3 [3]; 100 nM): 94.9% | cell viability (Calu-3 [3]; 1000 nM): 94.6% | cell viability (Calu-3 [3]; 10000 nM): 98.8% | cell viability (Vero E6 [4]; 1 nM): 99.2% | cell viability (Vero E6 [4]; 10 nM): 99.5% | cell viability (Vero E6 [4]; 100 nM): 102% | cell viability (Vero E6 [4]; 1000 nM): 98.8% | cell viability (Vero E6 [4]; 10000 nM): 106% | cell viability (HepG2 [5]; 1 nM): 102% | cell viability (HepG2 [5]; 10 nM): 94.2% | cell viability (HepG2 [5]; 100 nM): 102% | cell viability (HepG2 [5]; 1000 nM): 104% | cell viability (HepG2 [5]; 10000 nM): 97.9% | drug sensitivity score (U2OS [6]): 0 | drug sensitivity score (Caco-2 [7]): 0 | drug sensitivity score (Calu-3 [8]): 0 | drug sensitivity score (Vero E6 [9]): 0 | drug sensitivity score (HepG2 [10]): 0 | relative viability EC50 (U2OS [11]): > 10 µM | relative viability EC50 (Caco-2 [12]): > 10 µM | relative viability EC50 (Calu-3 [13]): > 10 µM | relative viability EC50 (Vero E6 [14]): > 10 µM | relative viability EC50 (HepG2 [15]): > 10 µM

OC[C@H]1O[C@H]([S-])[C@H](O)[C@@H](O)[C@@H]1O.[Au+] [aurothioglucose]
cell viability (U2OS [1]; 1 nM): 96.1% | cell viability (U2OS [1]; 10 nM): 98.4% | cell viability (U2OS [1]; 100 nM): 98.7% | cell viability (U2OS [1]; 1000 nM): 91.8% | cell viability (U2OS [1]; 10000 nM): 27.4% | cell viability (Caco-2 [2]; 1 nM): 108% | cell viability (Caco-2 [2]; 10 nM): 92.2% | cell viability (Caco-2 [2]; 100 nM): 98.7% | cell viability (Caco-2 [2]; 1000 nM): 91.3% | cell viability (Caco-2 [2]; 10000 nM): 84.2% | cell viability (Calu-3 [3]; 1 nM): 101% | cell viability (Calu-3 [3]; 10 nM): 92.1% | cell viability (Calu-3 [3]; 100 nM): 97.3% | cell viability (Calu-3 [3]; 1000 nM): 106% | cell viability (Calu-3 [3]; 10000 nM): 100% | cell viability (Vero E6 [4]; 1 nM): 87.3% | cell viability (Vero E6 [4]; 10 nM): 91.2% | cell viability (Vero E6 [4]; 100 nM): 86.7% | cell viability (Vero E6 [4]; 1000 nM): 89.5% | cell viability (Vero E6 [4]; 10000 nM): 117% | cell viability (HepG2 [5]; 1 nM): 90.4% | cell viability (HepG2 [5]; 10 nM): 106% | cell viability (HepG2 [5]; 100 nM): 106% | cell viability (HepG2 [5]; 1000 nM): 120% | cell viability (HepG2 [5]; 10000 nM): 97.5% | drug sensitivity score (U2OS [6]): 5.4 | drug sensitivity score (Caco-2 [7]): 0.5 | drug sensitivity score (Calu-3 [8]): 0 | drug sensitivity score (Vero E6 [9]): 0 | drug sensitivity score (HepG2 [10]): 0 | relative viability EC50 (U2OS [11]): 2.24 µM | relative viability EC50 (Caco-2 [12]): > 10 µM | relative viability EC50 (Calu-3 [13]): > 10 µM | relative viability EC50 (Vero E6 [14]): > 10 µM | relative viability EC50 (HepG2 [15]): > 10 µM
